Measurements taken from patent US20260151370A1, “Nutritional composition for neurodegeneration and neurotrauma” (N.V. Nutricia, priority 2023, published 2026).

Test system: PC12 neuronal cells
Assay: Neurite outgrowth in NGF-differentiated PC12 neuronal cell cultures (Calcein-AM/Hoechst imaging)
Format: cell-based
Protocol: In order to assess the effects of nutritional components on axonal outgrowth and dendritic arborization underlying functional brain connectivity, the effects of nutrient supplementation on neurite outgrowth parameters in PC12 pheochromocytoma cells was investigated. PC12 neuronal cell model is one of the most widely used cell models for the study of neuronal differentiation. PC12 pheochromocytoma cells were grown in DMEM (Gibco), supplemented with 10% fetal bovine serum (FBS), penicillin (100 units/ml), and streptomycin (100 μg/ml) (Gibco), under a humidified atmosphere with 95% air and 5% CO2 at 37° C. Cells were seeded onto a collagen (0.01 mg/ml) coated 96-well plates at a density of 5000 cells/well and after 24 hours supplemented with medium containing 20 ng/ml nerve growth factor (NGF) with or without the components as defined in the present and in the following examples. Cell cultures were incubated at 37° C. in 5% CO2 and medium was replaced every 2-3 days. DHA and EPA were resuspended in absolute ethanol and diluted 5 times in fetal bovine serum. Other compounds were dissolved in DMEM. All compounds were purchased from Sigma (Zwijndrecht, The Netherlands). Supplementation of cells was performed in 6-fold in 96 wells plates. Neurite outgrowth of these conditions was compared to non-supplemented cells. After 48 hours of nutrient supplementation, cell bodies and neurites were stained using Calcein-AM stain (0.2 μg/ml) (Invitrogen, batch #C3100MP) and the nuclei were counterstained using Hoechst stain (1.2 μg/ml) (Thermo Scientific, batch #62249) in 100 μl culture medium per well and incubated for 20 min at 37° C. Subsequently, FITC and DAPI images (9 images per well, 6 wells per condition) were taken using an ImageXpress Micro Confocal high content imaging system (Molecular Devices). Neurite length was quantified using the neurite outgrowth module in MetaXpress. Image analysis was carried out using the neurite outgrowth analysis module in MetaXpress (Molecular Devices). The measurements taken from each well included the number of nuclei and the mean neurite outgrowth (μm) per cell. The data was normalized to and expressed as a relative percentage of the plate-averaged value of the vehicle-treated control wells.

[1] = FIG. 8 plate: BA 200 μM, B2 0.25 μM, DHA 2.5 μM, D3 0.25 μM, PC 20 μM, alone or combined
[2] = FIG. 9 first plate: B2 0.25 μM, D3 0.75 μM, PC 15 μM, BA 40 μM, alone or together with reference diet
[3] = FIG. 4 plate: total 20 μM choline from chol-Cl, PC or both
[4] = FIG. 1 plate: DHA 6.7 μM, EPA 10 μM, vitamin B2 1.25 μM, vitamin D3 0.25 μM, alone or combined, 48 hours, 20 ng/ml NGF

In the case of `CCCC(=O)O` [BA, butyric acid], the “neurite outgrowth compared to control” value (FIG. 7 plate: BA 200 μM) is reported as “strongest effect on neurite outgrowth”, the “neurite outgrowth compared to control” value (FIG. 7 plate: BA 12.5, 25, 50, 100 and 200 μM) is reported as “increased neurite outgrowth in a dose-dependent manner” and the “observed mean neurite outgrowth, percentage relative to control (100%)” value [1] is reported as “increased neurite outgrowth more than supplementation of vitamin B2 and D3 alone”. The “observed mean neurite outgrowth, percentage relative to control (100%)” value [2] was “increased neurite outgrowth”.
With `C[N+](C)(C)CCO.[Cl-]` [chol-Cl, choline-chloride] the “neurite outgrowth compared to control” value [3] was “enhance neurite outgrowth”.
With `Cc1cc2nc3c(=O)[nH]c(=O)nc-3n(C[C@H](O)[C@H](O)[C@H](O)CO)c2cc1C` [vitamin B2, riboflavin] the “observed mean neurite outgrowth, percentage relative to control (100%)” value [4] was “increased neurite outgrowth” and the “observed mean neurite outgrowth, percentage relative to control (100%)” value [2] was “increased neurite outgrowth”.
`C=C1CC[C@H](O)C/C1=C/C=C1\CCC[C@]2(C)[C@@H]([C@H](C)CCCC(C)C)CC[C@@H]12` [vitamin D3, cholecalciferol] was tested, and the “observed mean neurite outgrowth, percentage relative to control (100%)” value [4] was “increased neurite outgrowth” and the “observed mean neurite outgrowth, percentage relative to control (100%)” value [2] was “increased neurite outgrowth”.
With phosphatidylcholine [PC] the “neurite outgrowth compared to control” value [3] was “increases neurite outgrowth more than supplementation with 100 mole % chol-Cl”, the “observed mean neurite outgrowth, percentage relative to control (100%)” value (FIG. 5 plate: choline 20 μM (chol-Cl and/or PC), DHA 3.3 μM, B2 0.5 μM, D3 0.25 μM) was “increased neurite outgrowth more than supplementation with 100 mole % chol-Cl” and the “observed mean neurite outgrowth, percentage relative to control (100%)” value [1] was “increased neurite outgrowth more than supplementation of vitamin B2 and D3 alone”. The “observed mean neurite outgrowth, percentage relative to control (100%)” value [2] was “increased neurite outgrowth”.
